Assay results reported in ChEMBL document CHEMBL5257160, “Siderophore conjugates to combat antibiotic-resistant bacteria” (2023).
Values after ≈ are worked out from the molar mass of the structure shown. One block for each compound: values may come before it. Numbered stars: 1 amine (or outer) side, 2 acyl side, 3 side chain; on linkers, the order of the positions; unused ones are H or OH. Square brackets hold non-standard residues; d marks the D form. Peptide text beside a SMILES is read from it. X1 = Cn1c(=O)n([C@@H]2S[C@H]([C@H](O)[C@@H](N[*:1])C(=O)[*:2])[C@@H](O)[C@H]2O)cc/c1=N\C(N)=O; Orn(N5-OH,N5-Ac) = CC(=O)N(O)CCC[C@H](N)C(=O)O

Assays:
Format in all cases: functional
[1] = system: Yersinia enterocolitica; assay: Antibacterial activity against Yersinia enterocolitica assessed as inhibition of bacterial growth in iron depleting media incubated for 20 hrs by CLSI protocol based assay
[2] = system: Streptococcus pneumoniae; assay: Antibacterial activity against Streptococcus pneumoniae assessed as inhibition of bacterial growth
[3] = system: Acinetobacter baumannii; assay: Antibacterial activity against carbapenem - resistant Acinetobacter baumannii
[4] = system: Proteus sp.; assay: Antibacterial activity against Proteus sp. assessed as inhibition of bacterial growth; conditions: Proteus sp. (in: enterobacteria)
[5] = system: Enterobacter sp.; assay: Antibacterial activity against Enterobacter sp. assessed as inhibition of bacterial growth
[6] = system: Stenotrophomonas maltophilia; assay: Antibacterial activity against Stenotrophomonas maltophilia assessed as inhibition of bacterial growth
[7] = system: Pseudomonas aeruginosa; assay: Antibacterial activity against Pseudomonas aeruginosa assessed as inhibition of bacterial growth
[8] = system: Enterobacteriaceae; assay: Antibacterial activity against Enterobacteriaceae assessed as inhibition of bacterial growth
[9] = system: Escherichia coli; assay: Antibacterial activity against Escherichia coli assessed as inhibition of bacterial growth
[10] = system: Klebsiella sp.; assay: Antibacterial activity against Klebsiella sp. assessed as inhibition of bacterial growth
[11] = system: Serratia sp.; assay: Antibacterial activity against Serratia sp. assessed as inhibition of bacterial growth; conditions: Serratia sp. (in: enterobacteria)

MIC [1]: 0.0078 µg/mL (≈ 0.00683 µM)
MIC [2]: 0.00196 µg/mL (≈ 0.00172 µM)
Compound: CC(=O)N(O)CCC[C@H](NC(=O)[C@H](CCCN(O)C(C)=O)NC(=O)[C@@H](N)CCCN(O)C(C)=O)C(=O)N[C@@H](CCC(=O)NCCNC(=O)CC[C@@H](NC(=O)c1ccc(N(C)Cc2cnc3nc(N)nc(N)c3n2)cc1)C(=O)O)C(=O)O

Compound: C[C@@H]1S[C@@H]2[C@H](NC(=O)/C(=N/OC(C)(C)C(=O)O)c3csc(N)n3)C(=O)N2C(C(=O)[O-])=C1C[N+]12CCC(CNC(=O)c3ccc(O)c(O)c3Cl)(CC1)C2
MIC [3]: ≤ 0.03 µg/mL

MIC90 [4]: 0.12 µg/mL (≈ 0.19 µM)
MIC90 [5]: 8 µg/mL (≈ 12.6 µM)
MIC90 [6]: 0.25 µg/mL (≈ 0.395 µM)
Compound: CC(C)(O/N=C(\C(=O)N[C@@H]1C(=O)N(S(=O)(=O)O)C1CNC(=O)NCc1cc(=O)c(O)cn1O)c1csc(N)n1)C(=O)O (some centres undefined)

MIC [7]: 2 µg/mL (≈ 3.96 µM)
MIC [8]: ≤ 1 µg/mL
Compound: C[C@H]1[C@H](NC(=O)/C(=N\OCc2cc(=O)c(O)cn2O)c2csc(N)n2)C(=O)N1OS(=O)(=O)O

MIC [2]: 0.01 µg/mL (≈ 0.0101 µM)
MIC [9]: 0.005 µg/mL (≈ 0.00504 µM)
Compound: CC(=O)N(O)CCC[C@H](NC(=O)[C@H](CCCN(O)C(C)=O)NC(=O)[C@@H](N)CCCN(O)C(C)=O)C(=O)N[C@@H](CO)C(=O)N[C@@H](C(=O)O)[C@@H](O)[C@H]1S[C@@H](n2cc/c(=N\C(N)=O)n(C)c2=O)[C@H](O)[C@@H]1O (H-[Orn(N5-OH,N5-Ac)][Orn(N5-OH,N5-Ac)][Orn(N5-OH,N5-Ac)]S[X1]-OH)

MIC90 [10]: 0.25 µg/mL (≈ 0.332 µM)
MIC90 [5]: 0.25 µg/mL (≈ 0.332 µM)
MIC90 [9]: 0.25 µg/mL (≈ 0.332 µM)
MIC90 [11]: 0.25 µg/mL (≈ 0.332 µM)
Compound: CC(C)(O/N=C(\C(=O)N[C@@H]1C(=O)N2C(C(=O)[O-])=C(C[N+]3(CCNC(=O)c4ccc(O)c(O)c4Cl)CCCC3)CS[C@H]12)c1csc(N)n1)C(=O)O [CEFIDEROCOL]
